Test system: Azotobacter chroococcum
Test: Growth of Azotobacter chroococcum with or without osmotic stress (0.3 M NaCl), glycine betaine versus extract
Assay type: cell-based
Details: for Bacterial concentration at 72 h / Survival rate relative to the strain under non-stressing conditions without addition of the extract / Survival rate relative to the strain under salt stress conditions, without addition of the extract: extract at 10 g of polyamines/kg of medium, glycine betaine quantity not given
Description: The effect of each of the extracts prepared according to example 1a), 1b) or 1c) was studied on the growth of various bacterial strains, under conditions with or without thermal stress, osmotic stress or acid/base stress. The extracts obtained in examples 1a), 1b) or 1c) were added to a culture medium in different quantities, in order to obtain the desired quantities of polyamines and/or tyramine.
The study was carried out in Spizizen Minimal Medium SMM culture broth ((NH4)2SO4: 2 g/L, K2HPO4: 14 g/L, KH2PO4: 6 g/L, MgSO4: 0.2 g/L, C6H5Na3O7·2H2O: 1 g/L, D-glucose: 5 g/L).
The starting inoculate for each strain was calibrated by OD measurement (620 nm) in order to obtain an initial concentration of approximately 10^3-10^4 CFU/mL. The strains were incubated for 24 to 72 h. Counts were performed in TSA agar (Tryptone Soya Agar) at TO and after 24 h, 48 h or 72 h incubation at 30° C. (+/−1° C.), according to the studied strains.
For each of the strains, the survival rate in the presence of the extract and/or stress was calculated relative to the bacterial concentration obtained at the end of the kinetics (at T=24 h, 48 h or 72 h) in the control mode containing the strain alone, under non-stressed conditions, without adding the extract. Similarly, the survival rate in the presence or absence of the extract and/or stress was calculated relative to the bacterial concentration obtained at the end of the kinetics in the mode containing the strain alone, under stress conditions, without adding the extract.
The strain Azotobacter chroococcum was tested under osmotic stress conditions, in other words by adding 0.3 M NaCl to the culture medium at time T=0.
The glycine betaine, known as an osmoprotectant, was tested in comparison with the Ascophyllum nodosum extract prepared according to example 1a).

[1] = non-stressing conditions (no NaCl), 72 h

## C[N+](C)(C)CC(=O)[O-] [glycine betaine]
[1]
  Bacterial concentration at 72 h: 1.1 · 10^8 CFU/mL
  Survival rate relative to the strain under non-stressing conditions without addition of the extract: 0.3 log
  Survival rate relative to the strain under salt stress conditions, without addition of the extract: 5.1 log
Osmotic stress 0.3 M NaCl
  stabilisation of Azotobacter chroococcum under osmotic stress: no stabilisation is observed
Salt stress 0.3 M NaCl, 72 h
  loss in the bacterial concentration after 72 h incubation relative to the stress conditions: 0.8 logs
  Bacterial concentration at 72 h: 1.4 · 10^2 CFU/mL
  Survival rate relative to the strain under non-stressing conditions without addition of the extract: −5.6 log
  Survival rate relative to the strain under salt stress conditions, without addition of the extract: −0.8 log

— patent US20230234897A1, “USE OF POLYAMINES, TYRAMINE AND/OR A PLANT EXTRACT CONTAINING SAME TO STABILISE MICROORGANISMS” (AGRO INNOVATION INTERNATIONAL, priority 2020, published 2023)
